Data set [1] has as its target T1, collagenase of the human monocytic stock U937 (Homo sapiens, UniProt P03956).
T1 construct: the collagenase of the human monocytic stock U937; endogenous in cells; host or cells: U937 human monocytic cell line
T1 sequence (P03956 100-469): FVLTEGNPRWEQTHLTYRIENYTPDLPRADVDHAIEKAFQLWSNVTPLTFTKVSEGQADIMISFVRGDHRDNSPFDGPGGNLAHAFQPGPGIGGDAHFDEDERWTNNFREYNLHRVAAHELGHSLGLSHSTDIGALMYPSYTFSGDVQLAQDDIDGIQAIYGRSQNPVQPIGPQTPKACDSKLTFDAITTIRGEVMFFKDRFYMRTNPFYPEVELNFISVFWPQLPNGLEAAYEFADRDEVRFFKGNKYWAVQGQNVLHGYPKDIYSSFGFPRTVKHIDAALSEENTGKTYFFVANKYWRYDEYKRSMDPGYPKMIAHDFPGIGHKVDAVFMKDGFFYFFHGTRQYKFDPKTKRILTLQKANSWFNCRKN
Briefly: Activity on collagenase. It is filed as biochemical. The settings on record: radiomarked collagen, 27° C., 16 hours; read-out: C150 (nM) collagenase. The protocol:
The collagenase was incubated at 27° C. for 16 hours with radiomarked collagen, and its activity was determined by the release of soluble peptides produced by the enzymatic breakdown of the collagen. The inhibiting concentration C150 for each compound was determined by measurement of the activity of the enzyme in the presence of the inhibitor at a concentration ranging between 10^−7 and 10^−12 M (the inhibitor is dissolved at a concentration of 10^−2 M in DMSO, then diluted successively by tenths in the buffer: Tris, HCl 150 mM, pH 7.5; NaCl 0.15 M; CaCl2 10 mM).

For data set [2], the system named is release of TNF from the peritoneal macrophages of mice stimulated by LPS. The data set can be described thus: Inhibition of the production of TNF in vitro. It is filed as cell-based. As to conditions: Peritoneal macrophage; mouse peritoneal macrophages, LPS 100 ng/ml; read-out: C150 (μM) TNF. How it is done: The capacity of the compounds according to this invention to inhibit the release of TNF was determined from the peritoneal macrophages of mice stimulated by LPS (Lang, F., Robert, […], Petit, J. Y., J. Pharmacol. Exp. Ther., 275, 171-176, 1995). After an adhesion phase of 2 hours, the cells were treated for 1 hour with the compound to be tested at concentrations ranging between 10^-6 to 10^-9 M (the inhibitor is dissolved in DMSO at 10^-2 M, then at 5.10^-3 M in RPMI 1640 with 5% SVF, then diluted successively by tenths in the same medium), then stimulated by the addition of LPS (100 ng/ml in final concentration). Three hours later, the biological activity of the TNF in the supernatants was determined by a cytotoxicity test using the murine stock L929 in accordance with the operating procedure described by Band, G., Lin, […]., Evans, C. H. (Bioch. Biophys. Acta, 1134, 309-318, 1982). The pg/ml concentration of the TNF of the samples was determined from a murine αTNF standard curve, thus making it possible to define the inhibiting concentration […] of the compounds studied.

Data set [3] deals with femoral head cartilage of the rat implanted subcutaneously in mice. Briefly: Inhibition of the breakdown of cartilage in vivo. The settings on record: 10 mg/kg i.p. twice a day, 21 days. How it is done: The activities of the compounds of example 1 and example 10 comparatively to the compound BB16 were determined in a model of breakdown of cartilage in accordance with the operating mode described by Bottomley, K. M. K., Griffith, S. R. J., Rising, T. G., Steward, A. (Brit. J. Pharmacol. 21, 287-289, 1988). Femoral head cartilage of the rat, wrapped in sterile cotton, is implanted subcutaneously on the backs of mice. After 21 days, the mice are euthanized, the cartilages recovered and weighed. The animals are treated each day, twice a day, with one 10-mg/kg dose i.p.

The target of data set [4] is T2, 72 kDa gelatinase of human origin (Homo sapiens, UniProt P08253).
T2 sequence (P08253 110-660): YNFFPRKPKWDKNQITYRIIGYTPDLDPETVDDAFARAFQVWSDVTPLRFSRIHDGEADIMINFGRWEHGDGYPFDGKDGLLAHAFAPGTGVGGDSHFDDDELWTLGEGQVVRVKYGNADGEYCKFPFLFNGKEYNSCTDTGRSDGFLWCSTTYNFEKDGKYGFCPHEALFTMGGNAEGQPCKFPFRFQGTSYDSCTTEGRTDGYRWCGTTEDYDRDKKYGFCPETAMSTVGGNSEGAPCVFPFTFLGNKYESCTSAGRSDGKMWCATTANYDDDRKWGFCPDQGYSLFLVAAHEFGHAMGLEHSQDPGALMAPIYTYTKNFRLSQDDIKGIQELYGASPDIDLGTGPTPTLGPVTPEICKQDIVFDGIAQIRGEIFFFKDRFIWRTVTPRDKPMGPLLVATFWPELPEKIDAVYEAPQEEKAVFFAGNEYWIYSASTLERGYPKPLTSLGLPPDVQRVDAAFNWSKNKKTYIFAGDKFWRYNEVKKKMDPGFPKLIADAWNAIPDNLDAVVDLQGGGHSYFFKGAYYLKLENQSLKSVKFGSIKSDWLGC
Briefly: Activity on gelatinase, synthetic substrate. It is filed as biochemical. The settings on record: performed on synthetic substrate; read-out: C150 (nM) gelatinase 72 kDa**. The protocol:
The anti-gelatinase activity of the compounds according to the invention was determined on 72 kDa gelatinase of human origin, in accordance with the operating mode described by Knight, C. G., Willenbrock, F., Murphy, G. (FEBS Letters, 296 (3), 263-266, 1992).
The gelatinase was incubated at 37° C. for 10 minutes, and its activity was determined by the increase in fluorescence of the product of Mca-Pro-Leu breakdown of the Mca-Pro-Leu-Gly-Leu-Dpa-Ala-Arg-NH2 synthetic substrate.
The inhibiting concentration C150 for each compound was determined by measurement of the activity of the enzyme in the presence of the inhibitor at a concentration ranging between 10^−7 and 10^−12 M (the inhibitor is dissolved at a concentration of 10^−2 M in DMSO, then diluted successively by tenths in DMSO to 10^−4 M, then in the buffer: Tris, HCl 50 mM+0.05% Brij 35; CaCl2 10 mM; NaCl 0.15 M).

The target in data set [5] is stromelysine of human origin (Homo sapiens, UniProt P08254). The data set can be described thus: Activity on stromelysine. The settings on record: radiomarked transferrin, 37° C., 16 hours; read-out: C150 (nM) stromelysine. The format is biochemical. How it is done: The stromelysine was incubated at 37° C. for 16 hours with radiomarked transferrin, and its activity was determined by the release of the soluble peptides produced by the enzymatic breakdown of the transferrin. The inhibiting concentration C150 for each compound was determined by measurement of the activity of the enzyme in the presence of the inhibitor at a concentration ranging between 10^−7 and 10^−12 M (the inhibitor is dissolved in the same manner as for collagenase).
stromelysine of human origin, sequence (P08254 100-477): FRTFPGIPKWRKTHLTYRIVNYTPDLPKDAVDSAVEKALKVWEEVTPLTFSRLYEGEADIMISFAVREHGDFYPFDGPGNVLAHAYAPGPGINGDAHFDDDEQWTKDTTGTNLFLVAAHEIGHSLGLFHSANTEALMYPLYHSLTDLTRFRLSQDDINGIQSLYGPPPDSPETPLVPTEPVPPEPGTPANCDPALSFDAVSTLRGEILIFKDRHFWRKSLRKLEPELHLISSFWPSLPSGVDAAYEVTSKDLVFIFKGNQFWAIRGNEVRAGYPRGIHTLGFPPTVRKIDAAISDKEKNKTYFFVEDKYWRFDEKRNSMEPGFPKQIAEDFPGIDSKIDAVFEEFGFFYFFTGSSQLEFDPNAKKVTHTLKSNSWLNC

Data set [6] concerns the target 92 kDa gelatinase of human origin (Homo sapiens, UniProt P14780). The data set can be described thus: Activity on gelatinase, radiomarked gelatin. It is filed as biochemical. As to conditions: test performed with radiomarked gelatin; read-out: C150 (nM) gelatinase 92 kDa*. How it is done:
The anti-gelatinase activity of the compounds according to the invention also was determined on 92 kDa or 72 kDa gelatinase of human origin, in accordance with the operating mode described by Harris, E. D., Krane, S. M.; (Biochem. Biophys. Acta, 258, 566-576, 1972).
The gelatinase was incubated at 37° C. for 16 hours with radiomarked gelatin, and its activity was determined by the release of the soluble peptides produced by the enzymatic breakdown of the gelatin. The inhibiting concentration C150 for each compound was determined by measurement of the activity of the enzyme in the presence of the inhibitor at a concentration ranging between 10^−7 and 10^−12 M (the inhibitor is dissolved in the same manner as for collagenase).

The next data set relates to metalloproteinase (MMP). The settings on record: Bioorg. Med. Chem. Letters (1996), 6, 1719-1724; cited from earlier work.

This is an account of results in patent publication US6344457B1, “Amino acid derivatives inhibiting extracellular matrix metalloproteinase and TNF alpha release” (Chiesi Farmaceutici S.p.A., priority 1997, dated 2002).

92 kDa gelatinase of human origin, sequence (P14780 94-707): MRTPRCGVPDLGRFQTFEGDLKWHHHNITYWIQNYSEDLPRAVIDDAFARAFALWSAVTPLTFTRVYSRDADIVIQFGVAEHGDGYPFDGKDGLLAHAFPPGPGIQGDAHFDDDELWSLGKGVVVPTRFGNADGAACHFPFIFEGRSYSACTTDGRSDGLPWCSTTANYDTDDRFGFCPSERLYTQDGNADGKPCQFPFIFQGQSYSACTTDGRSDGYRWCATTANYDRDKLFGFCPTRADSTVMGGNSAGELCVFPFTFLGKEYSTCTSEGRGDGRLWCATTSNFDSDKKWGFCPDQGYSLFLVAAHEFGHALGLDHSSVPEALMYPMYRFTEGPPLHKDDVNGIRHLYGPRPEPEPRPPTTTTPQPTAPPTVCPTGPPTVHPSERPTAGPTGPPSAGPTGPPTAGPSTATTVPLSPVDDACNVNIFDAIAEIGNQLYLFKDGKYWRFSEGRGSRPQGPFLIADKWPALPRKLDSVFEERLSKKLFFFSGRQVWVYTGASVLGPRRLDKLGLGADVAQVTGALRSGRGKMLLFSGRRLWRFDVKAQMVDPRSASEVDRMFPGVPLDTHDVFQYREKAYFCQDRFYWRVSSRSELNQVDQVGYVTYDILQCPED

As to `CNC(=O)[C@H](Cc1ccc(OC)cc1)NC(=O)[C@](O)(CC(C)C)[C@H](C)C(=O)NO` [Example 1], the IC50 in data set [1] stood at 5 nM; in data set [2], 1 µM; in data set [4], 1 nM; in data set [5], 15 nM; in data set [6] it was 1 nM. Also, in data set [3], the “inhibition of weight loss of the cartilage” value stood at 42%.

Turning to `CNC(=O)[C@H](Cc1ccccc1)NC(=O)[C@](O)(CC(C)C)[C@H](C)C(=O)NO` [Example 4, N-2(S)[1(S)(hydroxycarbamoyl)ethyl] 2(S) hydroxy4-methyl pentanoyl L-phenyl alanine N-methylamide], the melting point is 174.2 °C (dec.). In addition, in data set [1], the IC50 came out at 36 nM. For the same compound, the IC50 in data set [4] stood at 1.6 nM. Further, the IC50 in data set [5] was determined as 29 nM. Moreover, the IC50 in data set [6] amounted to 10 nM.

As to `CNC(=O)[C@H](Cc1ccc(Br)cc1)NC(=O)[C@](O)(CC(C)C)[C@H](C)C(=O)NO` [Example 11, N-2(S)[-1(S)(hydroxycarbamoyl)-1 ethyl]-2(S) hydroxy 4-methyl pentanoyl L-4-bromophenylalanine N-methylamide], the melting point was 214 °C (dec.). In data set [1], the IC50 was found to be 10 nM. Also, the IC50 in data set [2] is 0.61 µM. Moreover, the IC50 in data set [4] came out at 2 nM. In data set [5], the IC50 is 37 nM. Besides, in data set [6], the IC50 is 2 nM.

With `CNC(=O)[C@H](Cc1ccc(I)cc1)NC(=O)[C@](O)(CC(C)C)[C@H](C)C(=O)NO` [Example 14, N-2(S)[1(S) hydroxycarbamoyl-1 ethyl]-2(S) hydroxy 4 methyl pentanoyl L-4-iodophenylalanine N-methylamide], the IC50 in data set [1] is 2 nM; in data set [2], 0.4 µM; in data set [4], 0.3 nM; in data set [5], 12 nM; in data set [6] it was 0.2 nM.

As to `CSCCNC(=O)[C@H](Cc1ccc(I)cc1)NC(=O)[C@](O)(CC(C)C)[C@H](C)C(=O)NO` [Example 15, N-2(S)[1(S) hydroxycarbamoyl-1 ethyl]2(S) hydroxy 4-methylpentanoyl L-4-iodophenylalanine N-(2 methylthio-1-ethyl) amide], the IC50 turned out to be 32 nM in data set [1]; 4.5 µM in data set [2]; 1.3 nM in data set [4]; 38 nM in data set [5]; 0.001 nM in data set [6].

As to `CNC(=O)[C@H](Cc1ccc(F)cc1)NC(=O)[C@](O)(CC(C)C)[C@H](C)C(=O)NO` [Example 16, N-2(S)[1(S)hydroxycarbamoyl-1 ethyl]-2(S) hydroxy 4-methylpentanoyl L-4-fluorophenylalanine N-methylamide], the melting point was 186.5 °C. In addition, in data set [1], the IC50 was found to be 14 nM. Moreover, the IC50 in data set [2] stood at 0.6 µM. In addition, the IC50 in data set [4] turned out to be 1.2 nM. Moreover, the IC50 in data set [6] is 2 nM.

Take `CNC(=O)[C@H](Cc1ccc(Cl)c(Cl)c1)NC(=O)[C@](O)(CC(C)C)[C@H](C)C(=O)NO` [Example 18, N-2(S)[1(S)hydroxycarbamoyl-1 ethyl]-2 (S) hydroxy 4-methylpentanoyl L-3,4-dichlorophenylalanine N-methylamide]: the melting point was 216 °C (dec.). Further, the IC50 in data set [1] is 2 nM. Also, in data set [2], the IC50 was no more than 0.14 µM. In addition, the IC50 in data set [4] was determined as 0.4 nM. Further, in data set [5], the IC50 turned out to be 6 nM. For the same compound, the IC50 in data set [6] was determined as 0.002 nM.

As for `CNC(=O)[C@H](Cc1ccc(OC)cc1)NC(=O)[C@](O)(CC(C)C)[C@H](O)C(=O)NO` [Example 29], the melting point was 199 °C (dec.). Also, in data set [1], the IC50 stood at 26 nM. Further, the IC50 in data set [4] is 13 nM. For the same compound, the IC50 in data set [6] was 80 nM.

In turn, `CNC(=O)[C@H](Cc1ccc(Cl)c(Cl)c1)NC(=O)[C@](O)(CC(C)C)[C@H](O)C(=O)NO` [Example 30] showed a melting point of 194.1 °C. Besides, the IC50 in data set [1] was found to be 11 nM. Also, the IC50 in data set [2] is 3.6 µM. Moreover, the IC50 in data set [5] was greater than 1000 nM. Further, the IC50 in data set [6] worked out at 7 nM.

In the case of `CNC(=O)[C@H](Cc1ccc(OC)cc1)NC(=O)C1(CC(=O)NO)CCc2ccccc21` (stereo partly drawn) [IX], in the data set on metalloproteinase (MMP), the “activity on gem disubstitution, versus compound VII” value is recorded as “significant loss of activity”.

For `CNC(=O)[C@H](Cc1ccc(OC)cc1)NC(=O)C(C)(CC(=O)NO)c1ccccc1` (stereo partly drawn) [VIII], the “activity on gem disubstitution, versus compound VII” value in the data set on metalloproteinase (MMP) was “significant loss of activity”.

For the compound `CNC(=O)[C@H](Cc1ccc(OC)cc1)NC(=O)[C@H](CC(C)C)[C@H](C)C(=O)NO` [drawing 111, reference compound], the IC50 in data set [1] is 5 nM; in data set [2] it was 0.14 µM; in data set [4] it was 0.6 nM; in data set [5] it was 10 nM; in data set [6], 7 nM.
